This note sets out measurements from patent US7160909B2, “Cyclopenta[b]indole derivatives as sPLA2 inhibitors” (Eli Lilly and Company, priority 2001, dated 2007).

The target of the test is T1, recombinant human secreted phospholipase A2 (Homo sapiens, UniProt P14555).
T1 sequence (P14555 21-144): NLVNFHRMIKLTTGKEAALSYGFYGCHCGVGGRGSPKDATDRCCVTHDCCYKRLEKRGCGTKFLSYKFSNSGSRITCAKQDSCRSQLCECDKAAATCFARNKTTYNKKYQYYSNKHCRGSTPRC
The test is described as follows: chromogenic assay of recombinant human secreted phospholipase A2. It is filed as biochemical. The conditions noted are these: diheptanoyl thio-PC substrate, pH 7.5, 40° C. for 30 minutes, absorbance at 405 nanometers, triplicate. From the text: The following chromogenic assay procedure was used to identify and evaluate inhibitors of recombinant human secreted phospholipase A2. The assay described herein has been adapted for high volume screening using 96 well microtiter plates. A general description of this assay method is found in the article, “Analysis of Human Synovial Fluid Phospholipase A2 on Short Chain Phosphatidylcholine-Mixed Micelles: Development of a Spectrophotometric Assay Suitable for a Microtiterplate Reader”, by Laure J. Reynolds, Lori L. Hughes, and Edward A Dennis, Analytical Biochemistry, 204, pp. 190–197, 1992 (the disclosure of which is incorporated herein by reference): […]
A measured volume of racemic dipheptanoyl thio PC supplied in chloroform at a concentration of 100 mg/ml is taken to dryness and redissolved in 10 millimolar TRITON X-100™ nonionic detergent aqueous solution. […]
• 1. […] Read absorbance of wells at 405 nanometers with an automatic plate reader.
Tests were done in triplicate. […] Compounds initially found to be active were re-assayed to confirm their activity and, if sufficiently active, IC50 values were determined. […] In all cases, % inhibition measured at 405 nanometers generated by enzyme reactions containing inhibitors relative to the uninhibited control reactions was determined. […]

Broadly, the IC50 is the concentration that inhibits the measured activity by half. With `NC(=O)C1CCc2c1c1c(OCC(=O)O)cccc1n2Cc1ccccc1` (stereo not shown) [Example 1, (4-Benzyl-1-carbamoyl-1,2,3,4-tetrahydro-cyclopenta[b]indol-8-yloxy)-acetic acid], the IC50 stood at 0.046 µM.
